Assay: log P determination by HPLC on a reverse phase column (C 18), EEC Directive 79/831 Annex V.A8
Format: physicochemical
Conditions: pH 2.3, 0.1% aqueous phosphoric acid and acetonitrile as eluents, linear gradient 10% to 90% acetonitrile, 43° C.
Description: The determination of the log P values reported in the above tables and preparation examples is carried out in compliance with EEC Directive 79/831 Annex V.A8 by HPLC (High Performance Liquid Chromatography) on a reverse phase column (C 18). Temperature: 43° C. The determination is carried out in the acid region at pH 2.3 with 0.1% aqueous phosphoric acid and acetonitrile as eluents; linear gradient of 10% acetonitrile to 90% acetonitrile. Calibration is carried out with unbranched alkan-2-ones (with 3 to 16 carbon atoms) the log P values of which are known (determination of the log P values on the basis of retention times by linear interpolation between two sequential alkanones).

CCOC(=O)c1sc(C)nc1C(F)F
chromatographic logP: 2.18
